Measurements from ChEMBL document CHEMBL3400005, “Thermodynamic equilibrium solubility measurements in simulated fluids by 96-well plate method in early drug discovery” (Bioorg Med Chem Lett, 2015).
Values after ≈ are worked out from the molar mass of the structure shown.

Legend:
physchem [1] = settings: PBS, pH 7.4
physchem [2] = settings: water
physchem [3] = settings: simulated intestinal fluid, pH 6.8
physchem [4] = settings: simulated gastric fluid, pH 1.2
physchem [5] = assay: physchem
physchem [6] = settings: simulated gastric fluid, pH 1.2; remark: listed apart in the source
physchem [7] = settings: PBS, pH 7.4; remark: listed apart in the source
physchem [8] = settings: water; remark: listed apart in the source
physchem [9] = settings: simulated intestinal fluid, pH 6.8; remark: listed apart in the source

CCS(=O)(=O)CCn1c([N+](=O)[O-])cnc1C [TINIDAZOLE] gave a solubility thermodynamic at 4 h (physchem [1]) of 603 µM (≈ 149 µg/mL), a solubility thermodynamic at 4 h (physchem [2]) of 324 µM (≈ 80 µg/mL) and a solubility thermodynamic at 4 h (physchem [3]) of 324 µM (≈ 80 µg/mL). For the same molecule, the solubility thermodynamic at 4 h (physchem [4]) was 162 µM (≈ 40.1 µg/mL).

Molecule COc1ccc2cc3[n+](cc2c1OC)CCc1cc2c(cc1-3)OCO2.[Cl-] [BERBERINE CHLORIDE] has a solubility thermodynamic at 4 h (physchem [1]) of 21.4 µM, a solubility thermodynamic at 4 h (physchem [2]) of 214 µM and a solubility thermodynamic at 4 h (physchem [3]) of 398 µM. For the same molecule, the solubility thermodynamic at 4 h (physchem [4]) was 33.9 µM and the solubility thermodynamic (physchem [5]) was 537 µM.

Molecule CC[C@H]1OC(=O)[C@H](C)[C@@H](O[C@H]2C[C@@](C)(OC)[C@@H](O)[C@H](C)O2)[C@H](C)[C@@H](O[C@@H]2O[C@H](C)C[C@H](N(C)C)[C@H]2O)[C@](C)(OC)C[C@@H](C)C(=O)[C@H](C)[C@@H](O)[C@]1(C)O [CLARITHROMYCIN] has a solubility thermodynamic at 4 h (physchem [1]) of 0.676 µM (≈ 0.506 µg/mL), a solubility thermodynamic at 4 h (physchem [2]) of 0.676 µM (≈ 0.506 µg/mL) and a solubility thermodynamic at 4 h (physchem [3]) of 1.35 µM (≈ 1.01 µg/mL). For the same molecule, the solubility thermodynamic at 4 h (physchem [4]) was 0.676 µM (≈ 0.506 µg/mL) and the solubility thermodynamic (physchem [5]) was 0.0447 µM (≈ 0.0334 µg/mL).

In the case of CN(C/C=C/C#CC(C)(C)C)Cc1cccc2ccccc12.Cl [TERBINAFINE HYDROCHLORIDE], the solubility thermodynamic at 24 h (physchem [6]) is reported as 155 µM, the solubility thermodynamic at 4 h (physchem [1]) is reported as 0.302 µM and the solubility thermodynamic at 24 h (physchem [7]) is reported as 0.676 µM. For the same molecule, the solubility thermodynamic at 24 h (physchem [8]) was 229 µM, the solubility thermodynamic at 4 h (physchem [2]) was 245 µM and the solubility thermodynamic at 24 h (physchem [9]) was 0.617 µM. For the same molecule, the solubility thermodynamic at 4 h (physchem [3]) was 1.51 µM and the solubility thermodynamic at 4 h (physchem [4]) was 245 µM.

[H]/N=C(/N)N[C@H]1[C@H](O)[C@@H](O)[C@H](O[C@@H]2O[C@@H](C)[C@](O)(C=O)[C@H]2O[C@@H]2O[C@@H](CO)[C@H](O)[C@@H](O)[C@@H]2NC)[C@@H](N/C(N)=N\[H])[C@@H]1O [STREPTOMYCIN] showed a solubility thermodynamic at 4 h (physchem [1]) of 0.851 µM (≈ 0.495 µg/mL), a solubility thermodynamic at 4 h (physchem [2]) of 0.851 µM (≈ 0.495 µg/mL) and a solubility thermodynamic at 4 h (physchem [3]) of 0.851 µM (≈ 0.495 µg/mL). It also gave a solubility thermodynamic at 4 h (physchem [4]) of 0.851 µM (≈ 0.495 µg/mL).

CC(C)=CC[C@H]1C[C@@]23C[C@@H](CC=C(C)C)C(C)(C)[C@@](CC=C(C)C)(C(=O)C(C(=O)c4ccc(O)c(O)c4)=C2OC1(C)C)C3=O [CAMBOGIN] gave a solubility thermodynamic at 4 h (physchem [1]) of 0.851 µM (≈ 0.513 µg/mL), a solubility thermodynamic at 4 h (physchem [2]) of 0.851 µM (≈ 0.513 µg/mL) and a solubility thermodynamic at 4 h (physchem [3]) of 0.851 µM (≈ 0.513 µg/mL). The solubility thermodynamic at 4 h (physchem [4]) was 0.851 µM (≈ 0.513 µg/mL).

O=c1c2cc(O)c(O)cc2oc2cc(O)c([C@@H]3O[C@H](CO)[C@@H](O)[C@H](O)[C@H]3O)c(O)c12 [MANGIFERIN] gave a solubility thermodynamic at 4 h (physchem [1]) of 47.9 µM (≈ 20.2 µg/mL), a solubility thermodynamic at 4 h (physchem [2]) of 47.9 µM (≈ 20.2 µg/mL) and a solubility thermodynamic at 4 h (physchem [3]) of 19.1 µM (≈ 8.05 µg/mL). It also gave a solubility thermodynamic at 4 h (physchem [4]) of 19.1 µM (≈ 8.05 µg/mL).

For OC(Cn1cncn1)(Cn1cncn1)c1ccc(F)cc1F [FLUCONAZOLE], the solubility thermodynamic at 24 h (physchem [6]) was 0.851 µM (≈ 0.261 µg/mL), the solubility thermodynamic at 4 h (physchem [1]) was 0.324 µM (≈ 0.0991 µg/mL) and the solubility thermodynamic at 24 h (physchem [7]) was 0.468 µM (≈ 0.143 µg/mL). It also gave a solubility thermodynamic at 24 h (physchem [8]) of 0.537 µM (≈ 0.164 µg/mL), a solubility thermodynamic at 4 h (physchem [2]) of 0.324 µM (≈ 0.0991 µg/mL) and a solubility thermodynamic at 24 h (physchem [9]) of 0.891 µM (≈ 0.273 µg/mL). It also gave a solubility thermodynamic at 4 h (physchem [3]) of 0.324 µM (≈ 0.0991 µg/mL), a solubility thermodynamic at 4 h (physchem [4]) of 1.62 µM (≈ 0.497 µg/mL) and a solubility thermodynamic (physchem [5]) of 0.331 µM (≈ 0.101 µg/mL).

Molecule Clc1ccccc1C(c1ccccc1)(c1ccccc1)n1ccnc1 [CLOTRIMAZOLE] has a solubility thermodynamic at 4 h (physchem [1]) of 11.5 µM (≈ 3.96 µg/mL), a solubility thermodynamic at 4 h (physchem [2]) of 10 µM (≈ 3.45 µg/mL) and a solubility thermodynamic at 4 h (physchem [3]) of 0.288 µM (≈ 0.0995 µg/mL). For the same molecule, the solubility thermodynamic at 4 h (physchem [4]) was 5.75 µM (≈ 1.98 µg/mL).

COc1ccc2[nH]c([S+]([O-])Cc3ncc(C)c(OC)c3C)nc2c1 (stereo not drawn) [OMEPRAZOLE] gave a solubility thermodynamic at 4 h (physchem [1]) of 229 µM (≈ 79.1 µg/mL), a solubility thermodynamic at 4 h (physchem [2]) of 229 µM (≈ 79.1 µg/mL) and a solubility thermodynamic at 4 h (physchem [3]) of 57.5 µM (≈ 19.9 µg/mL). It also gave a solubility thermodynamic at 4 h (physchem [4]) of 437 µM (≈ 151 µg/mL) and a solubility thermodynamic (physchem [5]) of 145 µM (≈ 49.9 µg/mL).

With CC(=O)O[C@@]12CO[C@@H]1C[C@H](O)[C@@]1(C)C(=O)[C@H](O)C3=C(C)[C@@H](OC(=O)[C@H](O)[C@@H](NC(=O)OC(C)(C)C)c4ccccc4)C[C@@](O)([C@@H](OC(=O)c4ccccc4)[C@H]21)C3(C)C.O.O.O [DOCETAXEL] the solubility thermodynamic at 4 h (physchem [1]) was 2.45 µM, the solubility thermodynamic at 4 h (physchem [2]) was 5.37 µM and the solubility thermodynamic at 4 h (physchem [3]) was 1.23 µM. The solubility thermodynamic at 4 h (physchem [4]) was 0.617 µM and the solubility thermodynamic (physchem [5]) was 0.871 µM.

For CCCSc1ccc2nc(NC(=O)OC)[nH]c2c1 [ALBENDAZOLE], the solubility thermodynamic at 24 h (physchem [6]) was 204 µM (≈ 54.2 µg/mL), the solubility thermodynamic at 4 h (physchem [1]) was 1.91 µM (≈ 0.506 µg/mL) and the solubility thermodynamic at 24 h (physchem [7]) was 12.9 µM (≈ 3.42 µg/mL). The solubility thermodynamic at 24 h (physchem [8]) was 0.049 µM (≈ 0.013 µg/mL), the solubility thermodynamic at 4 h (physchem [2]) was 0.38 µM (≈ 0.101 µg/mL) and the solubility thermodynamic at 24 h (physchem [9]) was 0.759 µM (≈ 0.201 µg/mL). For the same molecule, the solubility thermodynamic at 4 h (physchem [3]) was 1.91 µM (≈ 0.506 µg/mL), the solubility thermodynamic at 4 h (physchem [4]) was 151 µM (≈ 40.2 µg/mL) and the solubility thermodynamic (physchem [5]) was 0.49 µM (≈ 0.13 µg/mL).

NC(=O)c1cnccn1 [PYRAZINAMIDE] showed a solubility thermodynamic at 4 h (physchem [1]) of 5370 µM (≈ 661 µg/mL), a solubility thermodynamic at 4 h (physchem [2]) of 5750 µM (≈ 708 µg/mL) and a solubility thermodynamic at 4 h (physchem [3]) of 7940 µM (≈ 978 µg/mL). It also gave a solubility thermodynamic at 4 h (physchem [4]) of 5620 µM (≈ 692 µg/mL).

Molecule CC(/C=C/C=C(\C)C(=O)O[C@@H]1O[C@H](CO[C@@H]2O[C@H](CO)[C@@H](O)[C@H](O)[C@H]2O)[C@@H](O)[C@H](O)[C@H]1O)=C\C=C\C=C(C)\C=C\C=C(/C)C(=O)O[C@@H]1O[C@H](CO[C@@H]2O[C@H](CO)[C@@H](O)[C@H](O)[C@H]2O)[C@@H](O)[C@H](O)[C@H]1O [CROCIN] has a solubility thermodynamic at 4 h (physchem [1]) of 155 µM (≈ 151 µg/mL), a solubility thermodynamic at 4 h (physchem [2]) of 155 µM (≈ 151 µg/mL) and a solubility thermodynamic at 4 h (physchem [3]) of 155 µM (≈ 151 µg/mL). The solubility thermodynamic at 4 h (physchem [4]) was 155 µM (≈ 151 µg/mL).

CC[C@H]1OC(=O)[C@H](C)[C@@H](O[C@H]2C[C@@](C)(OC)[C@@H](O)[C@H](C)O2)[C@H](C)[C@@H](O[C@@H]2O[C@H](C)C[C@H](N(C)C)[C@H]2O)[C@](C)(O)C[C@@H](C)/C(=N\OCOCCOC)[C@H](C)[C@@H](O)[C@]1(C)O [ROXITHROMYCIN] gave a solubility thermodynamic at 4 h (physchem [1]) of 1.2 µM (≈ 1.01 µg/mL), a solubility thermodynamic at 4 h (physchem [2]) of 0.603 µM (≈ 0.504 µg/mL) and a solubility thermodynamic at 4 h (physchem [3]) of 0.603 µM (≈ 0.504 µg/mL). It also gave a solubility thermodynamic at 4 h (physchem [4]) of 0.603 µM (≈ 0.504 µg/mL).
